EC50, IC50 and AC50 data for 44 molecules are collected here from ChEMBL document CHEMBL1201862, “PubChem BioAssay data set” (2004).

A short description of assay [1]: Luminescence Cell-Based Dose Confirmation HTS to Identify Inhibitors of Platelet Dense Granule Release. [Related pubchem assays: 1663 (Primary HTS), 1678 (Summary of Project)]. In kind it is functional.
Assay [2] addresses Luciferin 4-monooxygenase (Photinus pyralis, UniProt P08659). The assay is described as follows: firefly luciferase enzyme inhibitors, dose response, biochemical, luminescence (AID 1891).
A short description of a further assay: cells. In kind it is functional.
Assay [3] addresses FAD-linked sulfhydryl oxidase ALR (Homo sapiens, UniProt P55789). The assay is described as follows: inhibitors of human ALR sulfhydryl oxidase, dose response, biochemical, H2O2 detection, luminescence, cherry-pick (AID 493248).
Assay [4] in a line: cytotoxicity toward NIH3T3 fibroblasts, dose response, counter-screen, cell-based, ATP luminescence, mouse fibroblasts (AID 2010).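 Also: cells exposed to compound for about 90 hours before reading.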 In kind it is functional.
The nature of assay [5]: inhibitors of intracellular T. cruzi replication, confirmation, NIH3T3 host cells, beta-gal luminescence (AID 2044).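 Also: intracellular parasites grown in NIH/3T3 mouse fibroblasts as host cells; luminescent beta-galactosidase reporter signal from transgenic T. cruzi replicating inside host cells; inhibitors lower the luminescence signal.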 It counts as functional, cell-based.
Assay [6] addresses T1, Ubiquitin-conjugating enzyme E2 N (Homo sapiens, UniProt P61088).
T1 sequence (P61088 whole entry): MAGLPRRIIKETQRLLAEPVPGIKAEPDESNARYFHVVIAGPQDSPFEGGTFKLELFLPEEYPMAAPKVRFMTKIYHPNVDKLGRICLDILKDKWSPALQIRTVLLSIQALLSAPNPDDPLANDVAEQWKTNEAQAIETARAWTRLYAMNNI
It counts as functional.

The target of the next assay is Cytochrome P450 3A4 (Homo sapiens, UniProt P08684). The following applies: Potency.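 Also: confirmatory qHTS run detecting inhibitors and substrates of CYP3A4.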
Sequence of Cytochrome P450 3A4 (P08684 whole entry): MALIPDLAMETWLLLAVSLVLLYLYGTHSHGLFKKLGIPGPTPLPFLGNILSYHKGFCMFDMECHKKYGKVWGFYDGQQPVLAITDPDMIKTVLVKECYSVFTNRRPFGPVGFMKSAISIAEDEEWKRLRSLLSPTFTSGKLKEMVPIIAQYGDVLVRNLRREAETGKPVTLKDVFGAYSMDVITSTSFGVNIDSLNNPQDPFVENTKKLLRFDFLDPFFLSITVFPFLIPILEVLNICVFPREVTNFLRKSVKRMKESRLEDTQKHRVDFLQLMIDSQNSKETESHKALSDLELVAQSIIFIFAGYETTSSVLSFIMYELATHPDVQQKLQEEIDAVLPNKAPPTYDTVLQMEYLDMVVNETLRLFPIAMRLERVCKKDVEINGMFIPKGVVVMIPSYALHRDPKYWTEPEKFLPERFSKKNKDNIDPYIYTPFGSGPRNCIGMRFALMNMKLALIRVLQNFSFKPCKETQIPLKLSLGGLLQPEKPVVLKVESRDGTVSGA
The nature of assay [7]: intracellular Trypanosoma cruzi inhibitors in host cells – cell-based, plate reader, cherry-pick samples, set 3, dose response (AID 651818).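 Also: compounds incubated with infected cells for about four days.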 It counts as functional.
In assay [8] the target is T2, Corticotropin-releasing factor receptor 2/Corticotropin-releasing factor-binding protein (Homo sapiens, UniProt P24387+Q13324).
T2 sequence (Q13324 whole entry): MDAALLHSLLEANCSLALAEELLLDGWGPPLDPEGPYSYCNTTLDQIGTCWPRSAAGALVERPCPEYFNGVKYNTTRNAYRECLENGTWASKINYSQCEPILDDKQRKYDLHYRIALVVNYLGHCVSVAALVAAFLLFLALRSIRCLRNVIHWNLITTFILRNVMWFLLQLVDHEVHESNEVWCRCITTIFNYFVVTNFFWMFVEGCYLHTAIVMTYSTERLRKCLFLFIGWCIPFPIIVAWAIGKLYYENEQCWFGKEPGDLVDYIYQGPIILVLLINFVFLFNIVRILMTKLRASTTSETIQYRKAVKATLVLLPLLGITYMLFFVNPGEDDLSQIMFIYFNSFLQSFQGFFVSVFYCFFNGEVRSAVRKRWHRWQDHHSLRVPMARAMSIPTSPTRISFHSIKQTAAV
T2 sequence (P24387 whole entry): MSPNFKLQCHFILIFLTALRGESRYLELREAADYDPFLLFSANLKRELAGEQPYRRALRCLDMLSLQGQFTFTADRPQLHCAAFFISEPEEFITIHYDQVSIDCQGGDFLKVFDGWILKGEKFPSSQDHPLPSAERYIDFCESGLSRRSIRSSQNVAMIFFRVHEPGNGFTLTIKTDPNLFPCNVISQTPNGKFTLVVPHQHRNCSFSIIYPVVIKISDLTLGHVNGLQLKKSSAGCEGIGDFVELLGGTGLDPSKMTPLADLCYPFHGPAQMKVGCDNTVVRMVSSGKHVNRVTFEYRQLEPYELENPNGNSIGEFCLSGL
In words: Dose Response confirmation of uHTS hits for small molecule antagonists of the CRF-binding protein and CRF-R2 receptor complex. As to conditions: read-out: IC50_Mean. It counts as functional.

Assay [9] concerns the target T2, Corticotropin-releasing factor receptor 2/Corticotropin-releasing factor-binding protein. The assay is described as follows: activators of CRF receptor 2 with binding protein – uHTS hits, confirmation (AID 602473). It counts as functional. As to conditions: read-out: EC50_Mean.
For the next assay, the target named is Paired box protein Pax-8 (Homo sapiens, UniProt Q06710). The assay is described as follows: inhibitors of PAX8-driven TPO luciferase reporter, dose response, RMG-I cells, cherry-pick (AID 687027).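 Also: luciferase reporter driven by Pax8 target thyroperoxidase promoter measured by SteadyGlo luminescence.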 It counts as functional, cell-based. On the technique in general: Reporter assays use an easily measured gene product as a stand-in for the process of interest.
Sequence of Paired box protein Pax-8 (Q06710 whole entry): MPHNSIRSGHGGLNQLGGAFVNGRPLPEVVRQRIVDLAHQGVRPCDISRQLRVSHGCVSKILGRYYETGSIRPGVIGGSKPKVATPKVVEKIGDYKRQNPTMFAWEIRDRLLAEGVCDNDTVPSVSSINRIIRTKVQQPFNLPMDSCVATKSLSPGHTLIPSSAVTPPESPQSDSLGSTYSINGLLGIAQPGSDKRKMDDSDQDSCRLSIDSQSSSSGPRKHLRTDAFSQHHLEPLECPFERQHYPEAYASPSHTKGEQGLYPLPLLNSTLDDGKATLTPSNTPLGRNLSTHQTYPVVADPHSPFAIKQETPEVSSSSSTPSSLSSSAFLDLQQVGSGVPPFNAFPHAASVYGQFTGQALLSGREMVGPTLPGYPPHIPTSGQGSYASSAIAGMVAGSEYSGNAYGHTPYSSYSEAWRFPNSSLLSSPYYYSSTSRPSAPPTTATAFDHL
The nature of assay [10]: cytotoxicity in OVCAR8 ovarian cancer cells, dose response, PAX8 project, cell-based, plate reader, dry powder samples (AID 743197). In kind it is functional. The following applies: OVCAR-8.
Assay [11] in a line: NIH:OVCAR-3 ovarian cancer cell cytotoxicity, dose response, PAX8 inhibitor project, plate reader, dry powder samples (AID 743044). In kind it is functional, cell-based.
Assay [12] in a line: HepG2 cell cytotoxicity, dose response, cytotoxicity control, plate reader, cherry-pick, antagonist series (AID 743416). It counts as functional, cell-based.
A short description of assay [13]: P. falciparum Dd2 growth inhibitors, dose response, SYBR Green, cherry-picked samples (AID 1159567). It counts as functional, cell-based.

Molecules are shown by their SMILES. Activity calls are given as the source filed them. A value given as a limit tells only on which side of the number the result lay.

Sequence of FAD-linked sulfhydryl oxidase ALR (P55789 whole entry): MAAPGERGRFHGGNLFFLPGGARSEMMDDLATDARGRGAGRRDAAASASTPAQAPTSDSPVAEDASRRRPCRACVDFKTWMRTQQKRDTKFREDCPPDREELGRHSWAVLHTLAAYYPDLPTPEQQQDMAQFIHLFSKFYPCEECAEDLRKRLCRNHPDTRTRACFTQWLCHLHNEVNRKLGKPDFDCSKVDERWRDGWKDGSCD
Sequence of Luciferin 4-monooxygenase (P08659 whole entry): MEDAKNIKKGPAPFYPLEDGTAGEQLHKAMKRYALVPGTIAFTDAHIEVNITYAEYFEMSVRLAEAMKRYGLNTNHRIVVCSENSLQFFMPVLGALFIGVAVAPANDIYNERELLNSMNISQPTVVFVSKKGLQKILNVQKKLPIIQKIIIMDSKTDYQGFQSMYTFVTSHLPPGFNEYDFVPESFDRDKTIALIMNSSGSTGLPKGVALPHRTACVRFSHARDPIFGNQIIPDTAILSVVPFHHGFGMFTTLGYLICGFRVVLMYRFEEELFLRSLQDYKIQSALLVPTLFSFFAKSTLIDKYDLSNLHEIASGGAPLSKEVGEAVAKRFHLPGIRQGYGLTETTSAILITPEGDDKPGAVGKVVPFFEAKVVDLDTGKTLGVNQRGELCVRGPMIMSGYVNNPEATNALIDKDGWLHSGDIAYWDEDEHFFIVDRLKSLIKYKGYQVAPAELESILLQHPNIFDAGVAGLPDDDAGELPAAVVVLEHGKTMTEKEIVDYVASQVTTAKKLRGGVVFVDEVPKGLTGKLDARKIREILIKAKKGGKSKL

Regarding `CN1CCN(S(=O)(=O)c2cccc([N+](=O)[O-])c2)CC1`, the EC50 in assay [1] and in assay [2] was > 112 µM (not active) in each case.
On to `Cc1nnc(NC(=O)c2ccc3ccccc3c2)o1`, for which the IC50 in “cells” was 1.64 µM (active).
Consider `COC(=O)c1c(C(=O)OC)c(-c2ccc(F)cc2)n2c1CSC2`, for which the AC50 in assay [3] is 0.218 µM (active).
For `CC(C)OC(=O)c1cc(C(=O)c2cc(Cl)ccc2O)coc1=N`, the IC50 in the assay “cells” was 23.2 µM (active).
Regarding `CN(C)c1ccc(CN(C(=O)c2ccccc2Br)C2CCS(=O)(=O)C2)cc1` (stereo unspecified), in assay [3], the concentration at half-maximal activity (AC50) was 1.88 µM (active).
For `c1ccc2cc(OCCCn3ccnc3)ccc2c1`, the IC50 in “cells” was 42.5 µM (active). The EC50 in assay [4] is > 60 µM (not active); in [5] it was 1.01 µM (active).
For `COC(=O)c1cc(-c2cccs2)nc2ccccc12`, the IC50 in [6] was > 20 µM (inactive).
Regarding `O=C(c1ccncc1)N1CCN(C(=O)c2cccc3ccccc23)CC1`, the figures for the EC50 in [1] and in [2] were 16.6 µM (active) and > 112 µM (not active), respectively.
In the same order, the values of `CCC(Oc1cc(Cl)ccc1Cl)C(=O)NNC(=O)CCC(=O)O` (stereo unspecified) are > 112 µM (not active) and > 112 µM (not active).
In the same order, the values of `COc1cccc(CNC(=O)c2cc(S(=O)(=O)N3CCCC3)cn2C)c1` are > 112 µM (not active) and > 112 µM (not active).
As for `COC(=O)[C@@H]1C[C@@]2(O)[C@H](O)[C@H](O)[C@H](O)C[C@H]2N1CC(c1ccccc1)c1ccccc1`, on Cytochrome P450 3A4, the AC50 is 20 µM (inconclusive).
For `COC(=O)c1cccc(C23CC4(C2)[C@H](CN(Cc2ccc(C(F)(F)F)cc2)[C@@H]4c2ccccc2)C3c2ccc(C(F)(F)F)cc2)c1` (stereo partly specified), the concentration at half-maximal activity (AC50) on Cytochrome P450 3A4 was 12.6 µM (inconclusive).
For the molecule `Cc1ccc(C(=O)NCCN2C3=NC[C@H](Cc4ccc(O)cc4)N3C[C@H]2Cc2ccc(O)cc2)cc1Br`, the IC50 in assay [6] is > 20 µM (inactive).
For `COC(=O)c1ccc(=O)n(-c2ccc(OC)cc2)c1`, the EC50 in [1] and in assay [2] was > 112 µM (not active) in each case.
As for `COc1ccc(N2CCN(c3ccc(C(=O)O)cc3[N+](=O)[O-])CC2)cc1`, the AC50 in assay [3] was 5.03 µM (active).
In the case of `Cc1ccccc1C(=O)NN1CC(C(=O)OCc2ccc(Cl)c(Cl)c2)CC1=O` (stereo unspecified), the IC50 in the assay “cells” is 22.2 µM (active).
For the molecule `COc1cc(CN2CCNC(=O)C2CC(=O)NCCCN2CCOCC2)cc(OC)c1` (stereo unspecified), the EC50 in assay [1] and in assay [2] was > 112 µM (not active) each time.
Regarding `COC(=O)[C@@H]1C[C@H]2CC[C@H](O)C[C@H]2N1Cc1ccc(N2CCOCC2)cc1`, at Cytochrome P450 3A4, the AC50 was 20 µM (inconclusive).
`CCCC(=O)Nc1ccc(-c2csc(NNC(C)=O)n2)cc1`: in [3], the AC50 was 0.859 µM (active).
Consider `CCN(CC(=O)Nc1ccccc1C(F)(F)F)C(=O)CCc1c(C)nc(O)c(C#N)c1C`, for which the EC50 in [1] was 2.71 µM (active); in [2], > 112 µM (not active).
Turning to `Cc1c(N)cccc1N`, on Cytochrome P450 3A4, the concentration at half-maximal activity (AC50) is 15.8 µM (inconclusive).
For `Cc1nc2sc(C(c3ccccc3)N3CCN(c4ccccc4F)CC3)c(O)n2n1` (stereo unspecified), the EC50 in assay [1] and in [2] was > 112 µM (not active) each time.
Regarding `CCCCN(C)CCCNC(=O)c1cc(-c2cccs2)nc2ccccc12`, the figures for the EC50 in assay [4] and in assay [5] were > 60 µM (not active) and 0.183 µM (active), respectively. In assay [6], the IC50 was > 20 µM (inactive).
As for `CCC(C)Nc1nc2c(c(=O)n(C)c(=O)n2C)n1Cc1ccc(F)cc1` (stereo unspecified), in assay [3], the AC50 is 2.09 µM (active).
In the case of `CC1=CC2=NC(=O)/C(=C\c3ccc(OC(=O)c4ccco4)cc3)C(=N)N2O1`, the IC50 in the assay “cells” is 21.8 µM (active).
As for `CCC(C)[C@H]1CN=C(N)N1CCc1cc(C(F)(F)F)cc(C(F)(F)F)c1` (stereo partly specified), in [6], the IC50 was > 20 µM (inactive).
The same measure, in the same setting: the same measure for `Nc1ncc([N+](=O)[O-])cc1S(=O)(=O)c1ccccc1`: > 20 µM (inactive); for `C#CCOCCOCCOCCNc1nc(N2CCN(C(=O)[C@H](CCCCN)n3cc([C@@H](N)[C@H](C)CC)nn3)CC2)nc(N2CCN(C(=O)[C@H](CCC(=O)O)n3cc([C@@H](N)CCCCN)nn3)CC2)n1`: > 20 µM (inactive).
For the molecule `C[C@@H]1CCCCO[C@@H](CN(C)Cc2ccc(Cl)c(Cl)c2)[C@@H](C)CN([C@H](C)CO)C(=O)c2cc(NC(=O)CCC(F)(F)F)ccc2O1`, the AC50 in [7] is 3.1 µM (active).
In the case of `CN(C)c1ccc(/C(=N\O)c2ccccc2)cc1`, the IC50 in assay [8] is > 47.1 µM (inactive). The EC50 in assay [9] was > 53 µM (inactive). The AC50 in assay [3] is 1.64 µM (active).
On to `C[C@@H]1CN([C@@H](C)CO)C(=O)c2cccc(NS(=O)(=O)c3ccccc3)c2O[C@H]1CN(C)Cc1ccc(-c2ccccc2)cc1`, for which, in assay [7], the AC50 is 1.39 µM (active).
Still for that read-out and setting: for `C[C@H](CO)N1C[C@H](C)[C@H](CN(C)Cc2ccc(C(F)(F)F)cc2)Oc2ccc(NS(=O)(=O)c3ccc(Cl)cc3)cc2C1=O` the value was 4.5 µM (active); for `C[C@@H]1CN([C@@H](C)CO)C(=O)c2cccc(NC(=O)Nc3ccc(C(F)(F)F)cc3)c2O[C@H]1CN(C)C(=O)Nc1ccc(C(F)(F)F)cc1`, 6.06 µM (active).
For `C[C@@H]1CCCCO[C@H](CN(C)C(=O)Nc2ccc3c(c2)OCO3)[C@@H](C)CN([C@H](C)CO)C(=O)c2cc(NC(=O)Nc3ccc(C(F)(F)F)cc3)ccc2O1`, in assay [7], the AC50 is 2.56 µM (active).
Still for that read-out and setting: the same measure for `C[C@@H]1CCCCO[C@@H](CN(C)Cc2ccc(Cl)c(Cl)c2)[C@@H](C)CN([C@H](C)CO)C(=O)c2cc(NC(=O)Nc3ccc(C(F)(F)F)cc3)ccc2O1`: 2.84 µM (active); for `COc1ccc(S(=O)(=O)Nc2ccc3c(c2)CC(=O)N([C@H](C)CO)C[C@@H](C)[C@@H](CN(C)Cc2ccc(Cl)c(Cl)c2)O3)cc1`: 3.78 µM (active).
Still for that read-out and setting: the same measure for `C[C@H]1CN([C@@H](C)CO)C(=O)Cc2cc(NC(=O)NC3CCCCC3)ccc2O[C@@H]1CN(C)Cc1ccc(Cl)c(Cl)c1`: 7.18 µM (active).
For the molecule `C[C@@H]1CN([C@H](C)CO)C(=O)c2cc(NC(=O)Nc3cccc4ccccc34)ccc2O[C@@H]1CN(C)C(=O)Nc1cccc2ccccc12`, the AC50 is 6.15 µM (active) at Paired box protein Pax-8, 46.1 µM (active) in assay [10] and 49.7 µM (active) in assay [11].
For the molecule `C[C@@H]1CCCCO[C@H](CN(C)Cc2ccncc2)[C@H](C)CN([C@H](C)CO)C(=O)c2cc(NC(=O)Nc3ccc(C(F)(F)F)cc3)ccc2O1`, the AC50 was 7.43 µM (active) on Paired box protein Pax-8 and 35.4 µM (active) in assay [11].
`COCC#Cc1ccc2c(c1)O[C@H](CN(C)S(=O)(=O)c1cccc(F)c1)[C@@H](C)CN([C@H](C)CO)S2(=O)=O`: the AC50 in assay [12] was > 52 µM (inactive).
Consider `CCC(=O)N1CC2(C1)CN(C(=O)Nc1ccccc1F)[C@H](CO)c1[nH]c3cc(OC)ccc3c12`, for which the AC50 in [13] was 15.9 µM (active).
The same measure, in the same setting: the same measure for `COc1ccccc1S(=O)(=O)N(C)C[C@@H]1Oc2cc(C#CCC(C)C)ccc2S(=O)(=O)N([C@@H](C)CO)C[C@@H]1C`: 3.17 µM (active); for `COc1ccc(NC(=O)N(C)C[C@@H]2Oc3cc(-c4ccc(C)cc4)ccc3S(=O)(=O)N([C@H](C)CO)C[C@H]2C)cc1`: 3.38 µM (active).
Regarding `Cc1cc(O)c(C=O)c2c1C(=O)Oc1c(C)c(O)c3c(c1O2)C(O)OC3=O` (stereo unspecified) [NORSTICTIC ACID], at Cytochrome P450 3A4, the AC50 is 39.8 µM (inconclusive).

As usually defined, the AC50 is the midpoint of the concentration-response curve, whichever way the signal moves.
